Molecules are shown by their SMILES.

Results on 101 compounds are retold here after ChEMBL document CHEMBL3507680, “University of Dundee, Gates Library screen for HepG2 cell viability”.

A short description of the data set: Human HepG2 cell viability assay in 384 well format. Set-up: dose 125 nL, time 70.5 hour; concentration not given beside the values. To be noted: HepG2 cells, read-out: Inhibition. Format: toxicity, cell-based.
Consider `OC(CN1CCC(c2ccn[nH]2)CC1)c1cc(F)ccc1F` (stereo unspecified), for which the cytotoxicity at 70.5 h is -1.27%. For `O=C(CCc1ccccc1)N1CC(n2cncn2)C1`, the cytotoxicity at 70.5 h was -7.88%. Turning to `CN1CCC(N(C)C(=O)c2cnc3c(cnn3C3CCCC3)c2)CC1`, the cytotoxicity at 70.5 h was -7.87%. As for `O=C(c1ccn(-c2ccc(F)cc2)n1)N1CCCC(n2ccnc2)C1` (stereo unspecified), the cytotoxicity at 70.5 h is -6.02%. As for `Cc1ccnc(NC(=O)c2[nH]nc(C(C)C)c2Br)c1`, the cytotoxicity at 70.5 h is 19.7%. The figure for `O=C(c1ccc(-n2cnnc2)cc1)N1CCCC(n2ccnc2)C1` (stereo unspecified) is -8.88%; for `Cc1cccc(NC2CCN(C(=O)Nc3cn[nH]c3)CC2)n1` it is -6.92%. The figure for `Cc1cnn(CC2CCCN2Cc2nc(N)c3ccccc3n2)c1` (stereo unspecified) is 45.2%; for `Cc1cnn(CC2CCCN2Cc2ncc(-c3ccc(F)cc3)o2)c1` (stereo unspecified) it is 24%. For `CCC(O)CN1CCN(C(=O)c2cccn2Cc2cccnc2)CC1` (stereo unspecified), the cytotoxicity at 70.5 h amounted to 17.3%. Turning to `CCC(O)CN1CCN(C(=O)c2cccn2Cc2ccncc2)CC1` (stereo unspecified), the cytotoxicity at 70.5 h stood at 21.3%. Turning to `N#Cc1ccccc1N1CCCN(C(=O)CCc2cccs2)CC1`, the cytotoxicity at 70.5 h was -8.79%.

For the compound `Fc1ccc(-c2nc(CN3CCCC3Cn3cncn3)co2)cc1F` (stereo unspecified), the cytotoxicity at 70.5 h was 17.9%. As for `N#Cc1ccccc1N1CCCN(C(=O)CCc2ccco2)CC1`, the cytotoxicity at 70.5 h was -5.97%. On to `Fc1cccc(-c2nc(CN3CCCC3Cn3cccn3)co2)c1` (stereo unspecified), for which the cytotoxicity at 70.5 h stood at 15.8%. Consider `O=C(c1cccc2c1OCCO2)N1CCCC1c1noc(C2CC2)n1` (stereo unspecified), for which the cytotoxicity at 70.5 h was -2.14%. Take `Cc1c(C(=O)NCC2CCS(=O)(=O)C2)cnn1-c1ccccc1` (stereo unspecified): the cytotoxicity at 70.5 h was -1.52%. With `Cc1nc(CN2CCC(c3ccnn3CCO)CC2)oc1C`, the cytotoxicity at 70.5 h is 1.65%. `Cc1noc(C)c1CN1CCC(c2ccnn2CCO)CC1`: the cytotoxicity at 70.5 h is -5.98%. For `O=C(Cc1n[nH]c2ccccc12)N1CCCCC1Cn1cccn1` (stereo unspecified), the cytotoxicity at 70.5 h worked out at 2.97%. Turning to `O=c1[nH]c(CCN2CCCC2Cn2cccn2)nc2ccccc12` (stereo unspecified), the cytotoxicity at 70.5 h was -9.61%. Regarding `Cc1nc(C2CCCN(C(=O)c3cc(-c4ccccc4)[nH]n3)C2)no1` (stereo unspecified), the cytotoxicity at 70.5 h is -3.98%.

As to `Cc1noc2ncc(C(=O)N3CCCC3c3ccsc3)cc12` (stereo unspecified), the cytotoxicity at 70.5 h is -1.73%. The figure for `CN(Cc1nc2ccccc2o1)C1CCCN(c2cccnn2)C1` (stereo unspecified) is 4.68%; for `Cc1nc(C)n(CC2CCCCN2CC(=O)NC(C2CC2)C2CC2)n1` (stereo unspecified) it is 3.82%; for `CCC(O)CN1CCN(C(=O)c2ccn(-c3ccccc3)n2)CC1` (stereo unspecified) it is 2.94%. In the case of `CCn1cnnc1CNC(=O)NC(C)c1ccccn1` (stereo unspecified), the cytotoxicity at 70.5 h stood at 9.12%. On to `CC(O)CN1CCN(C(=O)c2ccn(-c3ccccc3Cl)n2)CC1` (stereo unspecified), for which the cytotoxicity at 70.5 h is -2.57%. For `CN(Cc1nnc(C2CC2)o1)C1CCCN(c2cccnn2)C1` (stereo unspecified), the cytotoxicity at 70.5 h was -3.05%. In the case of `Cc1nc(CN(C)C2CCCN(c3cccnn3)C2)oc1C` (stereo unspecified), the cytotoxicity at 70.5 h was 3.03%. In the case of `Cc1nnc2n1CCN(CCCS(=O)(=O)c1ccccc1)C2`, the cytotoxicity at 70.5 h is 0.781%. For `CCOc1ncccc1CNC(=O)N1CCCC1c1ccsc1` (stereo unspecified), the cytotoxicity at 70.5 h is -0.934%. Take `CN(C)c1ncccc1CNC(=O)N1CCCC1c1cccs1` (stereo unspecified): the cytotoxicity at 70.5 h was 1.79%. Turning to `CC(=O)Nc1nc(C(=O)N2CCCC2c2ccc(Br)cc2)cs1` (stereo unspecified), the cytotoxicity at 70.5 h was determined as 3.74%. In the case of `Cc1ccc(CN2CCC(NC(=O)c3scnc3C)CC2)cc1`, the cytotoxicity at 70.5 h turned out to be 3.8%.

For the compound `CC(NC(=O)c1cccs1)C(=O)Nc1cccnc1N1CCCCC1` (stereo unspecified), the cytotoxicity at 70.5 h was determined as 2.11%. For `CCn1cnnc1CNC(=O)NC(C)c1ccc(Cl)s1` (stereo unspecified), the cytotoxicity at 70.5 h was -0.949%. As to `Cn1cnnc1C1CCN(C(=O)CCOc2ccc(Cl)cc2)CC1`, the cytotoxicity at 70.5 h came to 19.2%. As for `Cc1ccc(OCCC(=O)N2CCC(c3nncn3C)CC2)c(C)c1`, the cytotoxicity at 70.5 h was 1.76%.

On to `CC(C)(C)c1cc(NC(=O)CN2CCc3cncnc3C2)on1`, for which the cytotoxicity at 70.5 h came out at 3.44%. For the compound `Cc1cc(NC(=O)CN2CCc3cncnc3C2)no1`, the cytotoxicity at 70.5 h turned out to be 25.7%. Turning to `Cc1nc(C)n(CC2CCCN2CCC(=O)NC2CCCC2)n1` (stereo unspecified), the cytotoxicity at 70.5 h is 0.666%.

`CS(=O)(=O)c1ccc(OCCCN2CCc3cncnc3C2)cc1`: the cytotoxicity at 70.5 h came to 23.6%. For the compound `Cc1nc(C)n(CC2CCCCN2CC(=O)Nc2nnc(C)s2)n1` (stereo unspecified), the cytotoxicity at 70.5 h was determined as 1.52%. On to `Cc1ccc2[nH]c(C(=O)N3CCCC3Cn3cccn3)cc2c1` (stereo unspecified), for which the cytotoxicity at 70.5 h is 4.08%. As to `CCOCC(O)CN1CCN(C(=O)c2cccc(CC#N)c2)CC1` (stereo unspecified), the cytotoxicity at 70.5 h was -1.07%.

In the case of `O=C(c1cc2c(F)cccc2[nH]1)N1CCCCC1Cn1cccn1` (stereo unspecified), the cytotoxicity at 70.5 h is 3.2%. `COc1ccc(C(O)CN2CC(n3nc(C)cc3C)C2)cc1` (stereo unspecified): the cytotoxicity at 70.5 h was 1.87%. Take `Cc1cc(C)n(C2CN(CC(O)c3cc(F)ccc3F)C2)n1` (stereo unspecified): the cytotoxicity at 70.5 h was determined as 6.16%. As for `Cc1ccc2cc(C(=O)N3CCCC3Cn3cccn3)[nH]c2c1` (stereo unspecified), the cytotoxicity at 70.5 h was 24.4%. Turning to `Cc1cc(C)n(C2CN(CC(O)c3ccc(S(C)(=O)=O)cc3)C2)n1` (stereo unspecified), the cytotoxicity at 70.5 h is 0.799%. In the case of `Cn1cc(CCNC(=O)NC2CCN(Cc3ccccn3)CC2)cn1`, the cytotoxicity at 70.5 h is 31.9%. For `CC(C)c1noc(CCCC(=O)NCC2CCS(=O)(=O)C2)n1` (stereo unspecified), the cytotoxicity at 70.5 h was 22.3%. `COc1cccc(CNc2cc(N3CCCC3CO)ncn2)n1` (stereo unspecified): the cytotoxicity at 70.5 h was -0.345%.

Turning to `COc1c(C)cnc(CN2CCOC(CNc3cccnn3)C2)c1C` (stereo unspecified), the cytotoxicity at 70.5 h was found to be 3.14%. `CCN(Cc1ccc2c(c1)OCCO2)C(=O)NC(C)Cn1cccn1` (stereo unspecified): the cytotoxicity at 70.5 h came out at 0.788%. In the case of `O=C(Cc1ccc2c(c1)OCCO2)NC1CC1`, the cytotoxicity at 70.5 h stood at 0.821%. On to `O=C(Cc1ccc2c(c1)OCCO2)NC1CCCCC1`, for which the cytotoxicity at 70.5 h is -1.15%.

For the compound `CN(C)c1cc(CNC(=O)c2cc(F)ccc2F)ccn1`, the cytotoxicity at 70.5 h amounted to 0.104%. In the case of `CN(Cc1nnc(C2CC2)n1C)C1CCN(Cc2ccon2)C1` (stereo unspecified), the cytotoxicity at 70.5 h is -12.4%. Regarding `CC(C)(NCC(=O)NCCC#N)c1ccc2c(c1)OCCO2`, the cytotoxicity at 70.5 h was -10.6%. Take `Cc1nc(C)n(CC2CN(Cc3cccc(C#N)c3)CCO2)n1` (stereo unspecified): the cytotoxicity at 70.5 h was -24.6%. As to `CN(Cc1nnc(C2CC2)n1C)C1CCN(Cc2ccc(F)cc2)C1` (stereo unspecified), the cytotoxicity at 70.5 h is -6.24%. For `Cc1cnn(CC2CCCN2Cc2nnc(Cc3ccccc3)o2)c1` (stereo unspecified), the cytotoxicity at 70.5 h was determined as 8%. Regarding `COc1c(CNCc2cccc(CS(C)(=O)=O)c2)c(C)nn1C`, the cytotoxicity at 70.5 h is -17%.

For the compound `Cc1nn(CC(C)C)c(N(C)C)c1CNCc1cc2ccccc2[nH]1`, the cytotoxicity at 70.5 h amounted to 5.6%. `Cc1noc(CN(Cc2ccc3c(c2)OCO3)C2CCCC2)n1`: the cytotoxicity at 70.5 h was -13%. As to `CC(C)c1nc(C2CCCN(C(=O)Cc3cccnc3)C2)no1` (stereo unspecified), the cytotoxicity at 70.5 h is -16.6%. As to `CC(C(=O)Nc1ccc(N2CCCC2)nc1)n1ccnc1` (stereo unspecified), the cytotoxicity at 70.5 h is -11.6%.

As for `Cn1ccc(C(=O)N2CCN(c3cc(C#N)ccn3)CC2)cc1=O`, the cytotoxicity at 70.5 h is -7.65%. Consider `COc1cc(CNCc2ccnc(N3CCOCC3)c2)cc(Cl)c1OC`, for which the cytotoxicity at 70.5 h is -18.7%. The figure for `N#Cc1ccc(S(=O)(=O)NC(=O)C2CC2)c(C(F)(F)F)c1` is -13.8%. With `CC(C(=O)Nc1cccc(N2CCCCC2)c1)n1cncn1` (stereo unspecified), the cytotoxicity at 70.5 h was -6.3%. As for `Cc1cccc(-c2ccc(C(=O)NCC3CCOC3)c(=O)[nH]2)c1` (stereo unspecified), the cytotoxicity at 70.5 h is -28.7%.

Regarding `COCCNC(=O)C1(c2ccccc2C)CCOCC1`, the cytotoxicity at 70.5 h turned out to be 17.1%. For `Cc1ccccc1CN1CCN(Cc2nccn2C)CC1`, the cytotoxicity at 70.5 h was -8.12%. Turning to `CC(C)c1noc(C(C)N2CCN(CCN3CCCC3=O)CC2)n1` (stereo unspecified), the cytotoxicity at 70.5 h is -11.8%.

For the compound `Cn1ccnc1CN1CCN(CC(=O)NCC(F)(F)F)CC1`, the cytotoxicity at 70.5 h is -10.6%. As to `CC(C)n1cc(CN2CCCN(C(=O)c3cc(Cl)c[nH]3)CC2)cn1`, the cytotoxicity at 70.5 h turned out to be 1.03%. The figure for `Cc1ccc(CNC(C)c2ccc3[nH]c(=O)[nH]c3c2)s1` (stereo unspecified) is -1.82%. With `Cn1ncc2c(=O)[nH]c(N3CCN(C(=O)c4ccsc4)CC3)nc21`, the cytotoxicity at 70.5 h came to 14.1%. Turning to `CC(C)C(C(=O)N1CCC(Nc2cccnn2)CC1)n1cncn1` (stereo unspecified), the cytotoxicity at 70.5 h is -11.9%.

With `Cc1nc(N2CCN(C(=O)c3ccc(O)cc3)CC2)c2cnn(C)c2n1`, the cytotoxicity at 70.5 h was -18.5%. Take `CN(Cc1nnc(-c2ccco2)o1)C1CCCN(c2cccnn2)C1` (stereo unspecified): the cytotoxicity at 70.5 h stood at 36.8%. Take `CCOc1c(Cl)cccc1NCc1cc(C)on1`: the cytotoxicity at 70.5 h is 6.44%. In the case of `Cc1ccc(S(=O)(=O)N2CCOc3ccccc32)cc1C(=O)O`, the cytotoxicity at 70.5 h was -1.56%. The same measure for `COc1ccc(CNCc2ccnc(N3CCOCC3)c2)cc1OC`: -10.1%; for `CCc1ccc(O)c(C(=O)NC2CCN(S(=O)(=O)CC)CC2)c1`: 8.84%. Consider `CCc1ccc(O)c(C(=O)NC2CCN(Cc3ccncc3)CC2)c1`, for which the cytotoxicity at 70.5 h is 17.7%. On to `CN(C)c1cc(CNC(=O)Nc2ccc(S(C)(=O)=O)nc2)ccn1`, for which the cytotoxicity at 70.5 h is -15.4%. In the case of `CN1CCOC(CNC(=O)CCCOc2ccccc2F)C1` (stereo unspecified), the cytotoxicity at 70.5 h was -15.3%.

For the compound `Cc1nn(C)c(N(C)C)c1CNCCNS(C)(=O)=O`, the cytotoxicity at 70.5 h was -7.58%. In the case of `CN1CCOC(CNC(=O)CCCOCCc2ccccc2)C1` (stereo unspecified), the cytotoxicity at 70.5 h was -14.2%. Take `Cc1cnn(C2CCCN(C(=O)c3sccc3-n3cnnn3)C2)c1` (stereo unspecified): the cytotoxicity at 70.5 h was -2.63%. The figure for `Cc1nn(-c2ccccc2)c(C)c1CNC1CCc2ncnn2C1` (stereo unspecified) is 1.33%; for `Cc1nc(-c2nnc[nH]2)sc1C(=O)N(Cc1cccnc1)C1CC1` it is 9.64%; for `Cc1ccc(NC(=O)C2CSCN2C(=O)c2cnccn2)c(C)c1` (stereo unspecified) it is -5.93%. Consider `Cc1ccc(NC(=O)C2CSCN2C(=O)c2cnn(C)c2)c(C)c1` (stereo unspecified), for which the cytotoxicity at 70.5 h was -4.99%. As to `Cc1c(F)cc(C(=O)O)cc1S(=O)(=O)Nc1ccc2c(c1)OCCO2`, the cytotoxicity at 70.5 h was -2.52%. Turning to `c1cc(-c2noc(CN3CCn4c(nnc4C4CC4)C3)n2)co1`, the cytotoxicity at 70.5 h was -0.323%. With `Cc1cc(OCC(=O)NS(=O)(=O)c2c(C)noc2C)ccc1Cl`, the cytotoxicity at 70.5 h was -7.45%.
